# Patent US20240325553A1, “CYTOSTATIC CONJUGATES WITH INTEGRIN LIGANDS” (priority 2018, published 2024)
# Like-named read-outs stand apart in the source and are kept apart here. Marks after values point to notes of the source that are not given here.
# Tests used:
# [1] = test system: NCI-H69 xenograft (lung cancer); test: In vivo xenotransplantation study, NCI-H69; design: species or system mice; conditions: NCI-H69, 40 mg/kg i.v., 3 days on, 4 days off, 3 cycles; mean tumor area
# Description: (§1) For this purpose, immunocompromised mice were implanted subcutaneously with tumor cells or tumor fragments. […] Intravenous treatments were performed on three consecutive days once daily followed by four days drug holiday without treatments. The tumor size and the body weight were determined at least weekly. The tumor area was detected by means of an electronic caliper [length (mm)×width (mm)]. The experimental groups were ended when the group reached the pre-determined ethical endpoint based on German and European animal welfare regulations. In vivo anti-tumor efficacy is presented as T/C ratio of mean tumor area measured for treatment and control group on the last day at which the vehicle control remained in study (Treatment/Control; mean tumor area of treatment group/mean tumor area of control group. A compound having a T/C below 0.5 is defined as active (i.e., effective). Statistical analysis was assessed using SigmaStat software. A one-way analysis of variance was performed and differences to the control were compared by a pair-wise comparison procedure (Dunn's method).
# 786-O cell line = test: Cytotoxicity in vitro (MTT) in the presence and absence of elastase, 786-O; format: cell-based
# Description: (§2) Cultivation of cells was performed according to standard procedures with the media recommended by the provider. The cells in a total volume of 100 μL were seeded in a 96-well plate with white bottom (#3610). After a 24 h incubation period at 37° C. and 5% CO2, the medium was changed by adding 90 μL fresh medium. The treatment starts by adding the test compound to the cells in 10 μl of culture medium. Concentrations from 10^−5 M to 10^−13 M in triplicates were chosen followed by an incubation at 37° C. and 5% carbon dioxide. One set of samples were only treated with the test compound whereas to an otherwise identically treated second set of samples also 10 nM elastase was pipetted. After 72 h. the proliferation is detected using the MTT assay (ATCC). At the end of the incubation period the MTT reagent is added to all samples for 4 h, followed by lysis of the cells overnight by addition of the detergent. The dye formed was detected at 570 nm. The proliferation of cells which were not treated with test substance but were otherwise identically treated was defined as the 100% value. (FIG. 1 and table 4).
# αvβ3 receptor = molecular target: T1, αvβ3 receptor (Homo sapiens, UniProt P05106+P06756); test: αvβ3 binding test (echistatin SPA)
# T1 construct: αvβ3 from human A375 cells was purified analogously to a procedure described by Wong et al; endogenous in cells; host or cells: human A375 cells (receptor purified from the cells)
# T1 sequence (P06756 31-889 limits assumed): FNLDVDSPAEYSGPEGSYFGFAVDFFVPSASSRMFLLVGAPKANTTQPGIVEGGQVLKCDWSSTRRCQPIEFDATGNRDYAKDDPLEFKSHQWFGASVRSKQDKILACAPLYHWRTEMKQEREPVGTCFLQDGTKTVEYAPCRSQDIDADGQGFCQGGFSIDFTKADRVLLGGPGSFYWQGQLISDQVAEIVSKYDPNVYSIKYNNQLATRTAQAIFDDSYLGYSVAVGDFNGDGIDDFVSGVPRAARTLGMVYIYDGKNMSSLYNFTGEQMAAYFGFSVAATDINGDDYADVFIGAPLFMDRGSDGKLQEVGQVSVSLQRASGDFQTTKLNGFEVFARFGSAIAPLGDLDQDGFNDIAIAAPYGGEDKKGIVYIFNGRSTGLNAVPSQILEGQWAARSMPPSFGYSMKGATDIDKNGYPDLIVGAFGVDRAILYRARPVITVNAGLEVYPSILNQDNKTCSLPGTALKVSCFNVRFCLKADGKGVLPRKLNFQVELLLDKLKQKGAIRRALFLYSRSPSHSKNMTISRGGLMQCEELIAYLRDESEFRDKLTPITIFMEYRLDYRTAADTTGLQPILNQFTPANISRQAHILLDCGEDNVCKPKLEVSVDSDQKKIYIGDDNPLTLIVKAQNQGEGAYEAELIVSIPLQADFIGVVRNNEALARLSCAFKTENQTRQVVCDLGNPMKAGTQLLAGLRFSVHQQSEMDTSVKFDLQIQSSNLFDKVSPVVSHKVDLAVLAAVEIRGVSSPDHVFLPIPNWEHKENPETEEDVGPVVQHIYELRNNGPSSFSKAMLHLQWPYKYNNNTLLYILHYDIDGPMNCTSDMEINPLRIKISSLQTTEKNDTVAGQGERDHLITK
# T1 sequence (P06756 891-1048 partner limits assumed): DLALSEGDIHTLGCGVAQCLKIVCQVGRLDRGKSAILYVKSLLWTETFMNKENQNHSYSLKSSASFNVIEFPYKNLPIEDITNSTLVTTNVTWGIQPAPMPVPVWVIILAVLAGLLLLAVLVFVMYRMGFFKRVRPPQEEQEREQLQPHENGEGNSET
# T1 sequence (P05106 27-788): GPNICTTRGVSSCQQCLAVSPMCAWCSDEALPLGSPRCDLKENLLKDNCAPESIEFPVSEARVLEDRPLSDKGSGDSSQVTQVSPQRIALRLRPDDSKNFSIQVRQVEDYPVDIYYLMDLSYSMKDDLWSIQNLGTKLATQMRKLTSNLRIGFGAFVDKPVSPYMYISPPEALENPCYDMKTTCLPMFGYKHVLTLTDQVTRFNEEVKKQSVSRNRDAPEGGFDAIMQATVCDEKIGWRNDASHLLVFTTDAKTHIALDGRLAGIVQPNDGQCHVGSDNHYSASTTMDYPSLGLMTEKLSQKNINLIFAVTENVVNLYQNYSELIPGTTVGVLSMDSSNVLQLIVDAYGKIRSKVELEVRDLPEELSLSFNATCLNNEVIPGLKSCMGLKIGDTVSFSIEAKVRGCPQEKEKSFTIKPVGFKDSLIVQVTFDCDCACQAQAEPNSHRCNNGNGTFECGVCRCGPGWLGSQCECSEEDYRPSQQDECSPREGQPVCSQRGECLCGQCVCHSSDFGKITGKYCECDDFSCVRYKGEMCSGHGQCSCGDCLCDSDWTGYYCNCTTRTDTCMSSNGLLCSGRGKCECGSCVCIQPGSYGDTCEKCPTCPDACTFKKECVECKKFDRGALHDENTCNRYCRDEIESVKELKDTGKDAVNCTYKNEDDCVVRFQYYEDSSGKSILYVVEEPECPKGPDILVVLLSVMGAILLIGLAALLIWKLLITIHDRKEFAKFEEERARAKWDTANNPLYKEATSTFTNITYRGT
# Description: αvβ3 from human A375 cells was purified analogously to a procedure described by Wong et al. in Molecular Pharmacology 50, 529-537 (1996). In each case, 10 μL of αvβ3 (5 ng) in TBS PH 7.6, 2 mM CaCl2. 1 mM MgCl2. 1% n-octylglucopyranoside (Sigma): 10 μL of test substance in TBS pH 7.6. 0.1% DMSO and 45 μL of TBS pH 7.6. 2 mM CaCl2, 1 mM MgCl2, 1 mM MnCl2 were incubated at room temperature for 1 h. In each case, 25 μL of WGA SPA beads (Amersham, 4 mg/ml) and 10 μL of echistatin (0.1 μCi, Amersham, chloramine-T labelled) were then added. After 16 h at room temperature, the samples were measured in a scintillation measuring apparatus (Wallac 1450).
# Solubility in vehicles = format: physicochemical; conditions: room temperature (25° C.)
# Description: Method: For each vehicle to be tested. 0.5-1.0 mg test compound were weighed into a 2 ml Eppendorf vial. 2-3 Glas perls (Ø 3 mm) and 1.0 ml vehicle were added. The vial was shaken at 1400 rpm for 24 hrs at room temperature (25° C.). After this time period the supernatant (approx. 230 μl was transferred to a centrifuge tube. After 30 min at 42 000 rpm the solute was transferred to another vial and diluted with DMSO (1:5 and 1:50). These two dilutions were analyzed by HPLC (read out: area)
# • Eluent A: 1 ml Trifluoro acetic acid/L water • Eluent B: 1 ml Trifluoro acetic acid/L acetonitrile • Gradient:
# • Column: ZORBAX Extend-C18, 3.0×50 mm, 3, 5 μm • Oven temperature: 30° C. • Detection: 214 and 254 nm • Injection volume: 20 μl
# For quantification a calibration curve was obtained from DMSO solution of the test compound ([…], 20 μg/ml and 2.5 μg/ml) by employing the same HPLC method.
# HT29 cell line = test: Cytotoxicity in vitro (MTT) in the presence and absence of elastase, HT29; format: cell-based; conditions: 72 h
# Description: as §2
# [2] = Stability in citric acid buffer at pH 4; format: physicochemical; conditions: 37° C., peak area
# Description: Method: 0.15 mg of the test compound were solved in 0.1 ml dimethylsulfoxide and 0.4 ml acetonitrile. For complete dissolution the HPLC vial with the sample solution was shaken and sonicated. Then 1.0 ml of the respective buffer solution (Citrate buffer pH 4; citric acid/sodium hydroxide/sodium chloride Fluka 33643) was added and the sample was vortexed. The sample solution was analysed by HPLC to determine the amount of the test compound and up to two byproducts at a particular time (0, 1, 2 4, 24 hrs) over a period of 24 h at 37° C. t(0) values resulted from a sample immediately taken after vortexing with buffer at RT. The peak areas (in percentage) were used for quantification.
# LC & LC/MS purity analysis: The starting material was analyzed for purity by LC; the 24 h sample was additionally analyzed by LC/MS (Waters Quattro Micro).
# [3] = test system: SW-480 xenograft (colon cancer); test: In vivo xenotransplantation study, SW-480; design: species or system mice; conditions: SW-480, 36 mg/kg i.v., 3 days on, 4 days off, 3 cycles; mean tumor area
# Description: as §1
# [4] = test system: 786-O xenograft (renal cancer); test: In vivo xenotransplantation study, 786-O; design: species or system mice; conditions: 36 mg/kg i.v., 3 days on, 4 days off, 3 cycles, mean tumor area
# Description: as §1
# [5] = Plasma stability in rat plasma; format: in vitro ADME; conditions: 37° C.
# Description: For complete dissolution the HPLC vial was shaken and treated with ultrasound. 500 μl of this solution were added to 0.5 mL of rat plasma with vortexing at a temperature of 37° C. Aliquots (10 μL each) were taken at respective time points and analyzed by HPLC to determine the amount of the test compound. All data is given as percent area of the initial compound at t0.
# [6] = test system: MX1 xenograft (breast cancer); test: In vivo xenotransplantation study, MX1; design: species or system mice; conditions: MX1, 36 mg/kg i.v., 3 days on, 4 days off, 3 cycles; mean tumor area
# Description: as §1
smiles,measurement,setting,value
"CCCNC(=O)Nc1cccc(S(=O)(=O)Nc2cccc([C@@H](CC(=O)[O-])NC(=O)Nc3ccc(NC(=O)NCCOCCOCCOCCC(=O)N[C@@H](CC(=O)[O-])C(=O)N4CCC[C@H]4C(=O)N[C@H](C(=O)O[C@]4(CC)C(=O)OCc5c4cc4n(c5=O)Cc5c-4nc4ccccc4c5CC)C(C)C)cc3)c2)c1.[Na+].[Na+] [Example 1, disodium (4S)-4,11-diethyl-3,14-dioxo-3,4,12,14-tetrahydro-1H-pyrano[3′,4′: 6,7]indolizino [1,2-b]quinolin-4-yl 1-{(2S)-2-(carboxylatomethyl)-17-[4-({[(1R)-2-carboxylato-1-{3-[({3-[(propyl-carbamoyl)amino]phenyl}sulfonyl)amino]phenyl}ethyl]carbamoyl}amino)anilino]-4,17-dioxo-7,10,13-trioxa-3,16-diazaheptadecan-1-oyl}-L-prolyl-L-valinate]",T/C,[1],0.06*
same,Specificity factor,"786-O cell line; 786-O, IC50 w/o elastase versus w elastase",165
same,IC50,"786-O cell line; 72 h, MTT, 10 nM elastase, read-out: 786-O cell line IC50 w elastase",1.1 nM
same,IC50,"786-O cell line; 72 h, MTT, without elastase, read-out: 786-O cell line IC50 w/o elastase",188 nM
same,IC50,"786-O cell line; side by side comparison, elastase with higher enzymatic activity used, read-out: 786-O cell line IC50 w elastase",0.17 nM
same,IC50,"786-O cell line; side by side comparison, without elastase, read-out: 786-O cell line IC50 w/o elastase",28 nM
same,IC50,αvβ3 receptor,29 nM
same,solubility at 24 h,Solubility in vehicles; read-out: Solubility in 0.9% NaCl in H2O,465 µg/mL
same,solubility at 24 h,Solubility in vehicles; read-out: Solubility in 5% D-Mannitol,> 500 µg/mL
same,IC50,"HT29 cell line; 10 nM elastase, read-out: HT29 cell line IC50 w elastase",8.7 nM
same,IC50,"HT29 cell line; without elastase, read-out: HT29 cell line IC50 w/o elastase",245 nM
same,"Stability in citric acid buffer at pH 4, 4h",[2]; 4 h,100%
same,"Stability in citric acid buffer at pH 4, 24h",[2]; 24 h,95%
same,T/C,[3],0.1*
same,T/C,[4],0.19*
same,stable in rat plasma for,[5],> 24 h
same,T/C,[6],0.03*
